Measured values reported in PubChem BioAssay (NCI).
Several values for one entry are separate records, joined by “and”; a condition that tells them apart may be missing. Equal values may be shown once.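 Growth conditions: 96-well plates. Treatment: test compound, 48 hours, 5 concentrations. Analysis: linear interpolation between bracketing concentrations; unreached endpoints set to highest concentration. GI50 marks 50% less growth. TGI is the concentration that stops growth completely.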 Where a SMILES comes first, the peptide text is derived from it. [ ]: non-standard residue; d: D form. The star is where a group is joined. ξ: configuration not given here. NMeY = CN[C@@H](Cc1ccc(O)cc1)C(=O)O; Cbz = O=C(OCc1ccccc1)*; ξA = CC(N)C(=O)O

Legend:
Experiment in all cases: growth of human tumour cells (NCI), 48 h
HCC-2998 colon = test system: HCC-2998 colon
SW-620 colon = test system: SW-620 colon
MDA-MB-231 breast = test system: MDA-MB-231 breast
SN12C renal = test system: SN12C renal
DU-145 prostate = test system: DU-145 prostate
MALME-3M melanoma = test system: MALME-3M melanoma
NCI-H522 lung = test system: NCI-H522 lung
NCI-H226 lung = test system: NCI-H226 lung
SK-MEL-5 melanoma = test system: SK-MEL-5 melanoma
HT29 colon = test system: HT29 colon

SMILES | TGI (HCC-2998 colon) | TGI (SW-620 colon) | TGI (MDA-MB-231 breast) | TGI (SN12C renal) | TGI (DU-145 prostate) | TGI (MALME-3M melanoma) | TGI (NCI-H522 lung) | TGI (NCI-H226 lung) | TGI (SK-MEL-5 melanoma) | TGI (HT29 colon) | GI50 (HCC-2998 colon) | GI50 (MDA-MB-231 breast) | GI50 (SN12C renal) | GI50 (DU-145 prostate) | GI50 (MALME-3M melanoma) | GI50 (NCI-H522 lung) | GI50 (SK-MEL-5 melanoma) | GI50 (HT29 colon)
COc1ccc(CNc2nc(NCc3ccc(OC)cc3)nc(NC3CCCCC3)n2)cc1 | 3.74 µM | > 100 µM | 7.73 µM | > 100 µM | 6.88 µM | 1.61 µM | 3.39 µM | 5.71 µM | > 100 µM | > 100 µM |  |  |  |  |  |  |  | 
CCOC(=O)c1cc(-c2ccc(OC)c(OC)c2)c[nH]1 | > 10 µM |  | > 10 µM | > 10 µM | > 10 µM | > 10 µM | > 10 µM | > 10 µM | > 10 µM | > 10 µM |  |  |  |  |  |  |  | 
O=S1(=O)NNC(=NCc2ccc(F)cc2)c2ccccc21 | > 100 µM | > 100 µM | > 100 µM | > 100 µM | > 100 µM | > 100 µM |  | > 100 µM | > 100 µM | > 100 µM |  |  |  |  |  |  |  | 
Oc1c2cccc1Cc1cccc3c1OCCOCCOCCOCCOc1c(cccc1Cc1cccc(c1O)C3)C2 | > 100 µM | > 100 µM | > 100 µM | > 100 µM | > 100 µM |  | > 100 µM | 81 µM | > 100 µM | > 100 µM |  |  |  |  |  |  |  | 
Oc1ccc2ccccc2c1-c1nnc(CCCCCCCCc2nnc(-c3c(O)ccc4ccccc34)o2)o1 | 11.9 µM and > 62.1 µM | 25 µM and > 43.2 µM |  |  | 9.59 µM and > 24.2 µM | 8.33 µM and 58.2 µM | 5.82 µM and 24.2 µM | 29.6 µM | 8.59 µM and 44.2 µM |  | 5.04 µM | 0.583 µM | 0.428 µM | 2.38 µM | 8.98 µM | 1.53 µM | 3.15 µM | 0.36 µM
Cc1[nH]c(=O)nc(N/N=C/c2ccc(Cl)c(Cl)c2)c1C(=O)Nc1ccc(Cl)c(Cl)c1 | > 100 µM | > 30 µM | 15.2 µM | > 46.5 µM | > 41.2 µM | > 44.5 µM | 44.7 µM | > 52.2 µM | 22.8 µM | > 46.5 µM |  |  |  |  |  |  |  | 
O=C1c2ccccc2NC2C(O)c3ccccc3N12 (stereo unspecified) | > 100 µM | > 100 µM | > 100 µM | > 100 µM | > 100 µM | > 100 µM | > 100 µM | > 100 µM | > 100 µM | > 100 µM |  |  |  |  |  |  |  | 
Cc1cc(S(=O)(=O)Nc2n[nH]c(Nc3ccccc3)n2)c(S)cc1Cl | > 10 µM | > 10 µM | > 10 µM | > 10 µM | > 10 µM | > 10 µM | > 10 µM | > 10 µM | > 10 µM | > 10 µM |  |  |  |  |  |  |  | 
NC(N)=N/N=C(\c1ccc(Cl)cc1)C1CC1 | 19.4 µM | 35.2 µM | 34.9 µM | 42.3 µM | 57.4 µM | 29 µM | 31.3 µM | 33.2 µM | 29 µM | 32.2 µM |  |  |  |  |  |  |  | 
COc1ccc(N2C(=O)C3c4[nH]c5ccc(C)cc5c4C4CCC(C(C)C)CC4C3C2=O)cc1 (stereo unspecified) | > 100 µM | > 100 µM | > 100 µM | > 100 µM | > 100 µM |  | > 100 µM | > 100 µM | > 100 µM | > 100 µM |  |  |  |  |  |  |  | 
CC(=O)Oc1ccc2cc(Oc3ccc(Cl)cc3)c(=O)oc2c1 | > 100 µM | > 100 µM | > 100 µM | > 100 µM | > 100 µM | > 100 µM | 89.6 µM | > 100 µM | 41.9 µM | > 100 µM |  |  |  |  |  |  |  | 
CCOC(=O)C1C/C(C)=C(/C)SCCCS1 (stereo unspecified) | > 100 µM | > 100 µM | > 100 µM | > 100 µM | > 100 µM | > 100 µM | 41.5 µM | > 100 µM | > 100 µM | > 100 µM |  |  |  |  |  |  |  | 
COc1ccccc1C(=O)c1c(N2CCCCC2)c(=O)c1=O | > 100 µM | > 100 µM | > 100 µM | > 100 µM | > 100 µM | > 100 µM | > 100 µM | > 100 µM | > 100 µM | > 100 µM |  |  |  |  |  |  |  | 
CC1(C)CC(=O)C(/C=N/c2nc(-c3ccc(Br)cc3)cs2)=C(O)C1 | 80.9 µM | > 100 µM | > 100 µM | > 100 µM | > 100 µM |  |  | > 100 µM | > 100 µM | > 100 µM |  |  |  |  |  |  |  | 
COc1ccc(C[C@@H](C(=O)NCC(N)=O)N(C)C(=O)[C@@H]2CCCN2C(=O)[C@H](CC(C)C)NC(=O)C(C)NC(=O)OCc2ccccc2)cc1 (stereo partly specified) (Cbz-[ξA]LP[NMeY](Me)G-NH2) | > 100 µM | > 100 µM | > 100 µM | > 100 µM | > 100 µM | > 100 µM | > 100 µM | > 100 µM | > 100 µM | > 100 µM |  |  |  |  |  |  |  | 
CCCCCCCCCCCCC(=O)NCC(=O)NC(Cc1ccccc1)C(=O)Oc1ccc([N+](=O)[O-])cc1 (stereo unspecified) | > 100 µM | > 100 µM | > 100 µM | > 100 µM | > 100 µM |  | 81 µM | > 100 µM | > 100 µM | > 100 µM |  |  |  |  |  |  |  | 
O=C(c1ccccc1F)c1c(NCc2ccccc2)c(=O)c1=O | > 100 µM | > 100 µM | > 100 µM | > 100 µM | > 100 µM | > 100 µM | > 100 µM | > 100 µM | > 100 µM | > 100 µM |  |  |  |  |  |  |  | 
C=CCc1c(O)c2ccccc2[nH]c1=O | > 100 µM | > 100 µM | > 100 µM | > 100 µM | > 100 µM | > 100 µM | > 100 µM | > 100 µM | > 100 µM | > 100 µM |  |  |  |  |  |  |  | 
CN(C)c1ccc(C(=NNC(=O)c2cc3ccccc3[nH]2)c2ccc(N(C)C)cc2)cc1 | 1.48 µM | > 100 µM | 12.9 µM | > 93.9 µM | > 100 µM |  | 2.53 µM | > 100 µM | > 100 µM | 9.93 µM |  |  |  |  |  |  |  | 
O=C(Nc1cccc2nsnc12)c1cc2c(cc1Cl)Sc1nccn1S2(=O)=O | 11.7 µM | > 60.7 µM | 21.9 µM | 31.1 µM | 3.17 µM | > 100 µM | 32.3 µM | 55.4 µM | 38.5 µM | 7.67 µM |  |  |  | 1.74 µM |  |  |  | 
COc1cc(C2SCC(=O)N2NC(=O)c2ccc(NC(C)=O)cc2)cc(OC)c1OC (stereo unspecified) | > 100 µM | > 100 µM | > 100 µM | > 100 µM | > 100 µM |  |  | > 100 µM | > 100 µM | > 100 µM |  |  |  |  |  |  |  | 
